In patent US9371294B2, “Cycloalkenyl aryl derivatives for CETP inhibitor” (CHONG KUN DANG PHARMACEUTICAL CORP., priority 2011, dated 2016):

Legend:
golden syrian hamsters = assay: Test for anti-hyperlipidemia activity in hamsters (blood HDL-c levels); format: in vivo; settings: male golden syrian hamsters; 3 mg/kg orally for 5 days; serum HDL-cholesterol 4 hours after last administration; vs vehicle control
From the text: […] Test for Anti-Hyderlipidemia Activity in Hamsters
1. Experimental animals As test animals, 8-week-old male golden syrian hamsters were purchased and used in the experimental. The animal facility was kept at constant temperature and constant humidity with a 12-hr dark/12-hr light cycle, and the animals were allowed to access food and water ad libitum.
2. Experimental for Anti-Hyperlipidemia Activity in Hamsters
The test animals were used in the test after an acclimation of 1 week. The test animals were divided according to body weight into several groups, each consisting of 5-8 animals. 3 mg/kg of each test compound (CETP inhibitor) was administered orally to the animals. Each test compounds was suspended in a solvent vehicle that is a solution of 5% ethanol, 10% solutol and 85% deionized water (DW), to be used. Each of test compounds suspended in a solvent vehicle was administered orally to the […] for 5 days. To the control group, a solvent vehicle itself was administered. And then, after 4 hours from the last administration, blood was collected through the cardiac puncture. The collected blood was centrifuged at 3000 rpm for 15 minutes, and the concentration of HDL-cholesterol (Biosystem) in the separated serum was measured using a biochemical analyzer (ILab 300 plus, Instrumentation Laboratory).
3. Statistical Processing
All the results were expressed as mean±SEM, and each test group and the control group were compared using one-way ANOVA test (Dunnett's test, p<0.001) in order to determine the effect of each test group.

[1] = target: T1, cholesteryl ester transfer protein (Homo sapiens, UniProt P11597); assay: In vitro test for the ability to inhibit cholesteryl ester transfer; format: biochemical; settings: [3H]-cholesteryl oleate transfer from rHDL-agarose to LDL; human plasma as CETP source; 37° C.; 16-10000 nM, duplicate
T1 construct: As a source of cholesteryl ester transfer protein, plasma from healthy humans was used; from tissue; host or cells: plasma from healthy humans
T1 sequence (P11597 18-493): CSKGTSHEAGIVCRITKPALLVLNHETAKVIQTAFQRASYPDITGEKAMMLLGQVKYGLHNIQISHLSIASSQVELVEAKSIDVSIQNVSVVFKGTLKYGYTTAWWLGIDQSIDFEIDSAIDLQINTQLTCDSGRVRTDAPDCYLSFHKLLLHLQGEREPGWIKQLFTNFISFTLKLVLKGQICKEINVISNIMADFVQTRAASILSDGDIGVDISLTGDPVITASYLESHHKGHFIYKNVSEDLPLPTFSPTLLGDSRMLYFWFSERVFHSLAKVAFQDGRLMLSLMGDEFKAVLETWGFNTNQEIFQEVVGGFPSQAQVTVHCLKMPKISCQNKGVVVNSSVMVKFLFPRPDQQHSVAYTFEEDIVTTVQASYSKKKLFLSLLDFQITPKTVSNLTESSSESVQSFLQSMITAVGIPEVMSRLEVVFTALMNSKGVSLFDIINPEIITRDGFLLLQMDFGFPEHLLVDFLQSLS
In short: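 Human plasma served as the CETP source, with human LDL (0.25 mg/ml) as acceptor and agarose-immobilised recombinant HDL carrying [3H]-cholesteryl oleate (0.25 mg/ml) as donor, at 37 °C. Compounds were run in duplicate at 16–10000 nM. Transferred radioactivity in the supernatant was counted by beta detection, and IC50 was fitted from the fraction of label transferred to LDL.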

[2] = cited from earlier work

Row | SMILES | IC50 [1] [nM] | HDL-c Increase (%) (golden syrian hamsters) | further results
1 | COc1cc(F)c(C(C)C)cc1C1=C(CN2C(=O)O[C@H](c3cc(C(F)(F)F)cc(C(F)(F)F)c3)[C@@H]2C)CC(C)(C)CC1 [Compound 19, (4S,5R)-5-(3,5-bis(trifluoromethyl)phenyl)-3-((2-(4-fluoro-5-isopropyl-2-methoxyphenyl)-5,5-dimethylcyclohex-1-enyl)methyl)-4-methyloxazolidin-2-one] |  | 35 | 
2 | COc1cc(F)c(C(C)C)cc1C1=C(CN2C(=O)O[C@H](c3cc(C(F)(F)F)cc(C(F)(F)F)c3)[C@@H]2C)CC(C)CC1 (stereo partly drawn) [Compound 25] | 200 | 33 | 
3 | COC(=O)c1ccc(OC)c(C2=C(CN3C(=O)O[C@H](c4cc(C(F)(F)F)cc(C(F)(F)F)c4)[C@@H]3C)CCCC2)c1 [Compound 36, methyl 3-(2-(((4S,5R)-5-(3,5-bis(trifluoromethyl)phenyl)-4-methyl-2-oxooxazolidin-3-yl)methyl)cyclohex-1-enyl)-4-methoxybenzoate] | 1090 | 11 | 
4 | COc1ccc(N(C)C(=O)C(C)C)cc1C1=C(CN2C(=O)O[C@H](c3cc(C(F)(F)F)cc(C(F)(F)F)c3)[C@@H]2C)CC(C)(C)CC1 [Compound 113, N-(3-(2-(((4S,5R)-5-(3,5-bis(trifluoromethyl)phenyl)-4-methyl-2-oxooxazolidin-3-yl)methyl)-4,4-dimethylcyclohex-1-enyl)-4-methoxyphenyl)-N-methylisobutyramide] |  | 17 | 
5 | CCC(CC)CC1(C(=O)Nc2ccccc2SC(=O)C(C)C)CCCCC1 [Dalcetrapib] |  |  | rise in HDL-C ([2]; in vivo): insufficient rise in HDL-C
6 | O=C(O)c1cccnc1 [Niacin] |  |  | side effects ([2]; relatively large doses): facial flushing
7 | CCOC(=O)N1c2ccc(C(F)(F)F)cc2[C@@H](N(Cc2cc(C(F)(F)F)cc(C(F)(F)F)c2)C(=O)OC)C[C@H]1CC [Torcetrapib] |  |  | effect on blood pressure ([2]; clinical trials terminated): increases in blood pressure; effect on mortality ([2]; clinical trials terminated): increase in mortality; effect on hormone levels ([2]; hormones associated with elevation in blood pressure): increases the levels of hormones, such as aldosterone and cortisol; effect on vascular wall ([2]; in vivo): increases the thickness of the vascular wall to cause inflammation

The next lines start with results.

Row | IC50 [1] [nM] | SMILES | HDL-c Increase (%) (golden syrian hamsters) | further results
8 | 5 | COc1cc(F)c(C(C)C)cc1C1=C(CN2C(=O)O[C@H](c3cc(C(F)(F)F)cc(C(F)(F)F)c3)[C@@H]2C)CC(C(F)(F)F)CC1 (stereo partly drawn) [Compound 48, (4S,5R)-5-(3,5-bis(trifluoromethyl)phenyl)-3-((2-(4-fluoro-5-isopropyl-2-methoxyphenyl)-5-(trifluoromethyl)cyclohex-1-enyl)methyl)-4-methyloxazolidin-2-one] | 41 | 
9 | 20 | COc1ccc(C(F)(F)F)cc1C1=C(CN2C(=O)O[C@H](c3cc(C(F)(F)F)cc(C(F)(F)F)c3)[C@@H]2C)CC(C)(C)CC1 [Compound 97, (4S,5R)-5-(3,5-bis(trifluoromethyl)phenyl)-3-((2-(2-methoxy-5-(trifluoromethyl)phenyl)-5,5-dimethylcyclohex-1-enyl)methyl)-4-methyloxazolidin-2-one] | 22 | 
10 | 20 | COc1ccc(C(C)C)cc1C1=C(CN2C(=O)O[C@H](c3cc(C(F)(F)F)cc(C(F)(F)F)c3)[C@@H]2C)CC(C(F)(F)F)CC1 (stereo partly drawn) [Compound 108, (4S,5R)-5-(3,5-bis(trifluoromethyl)phenyl)-3-((2-(5-isopropyl-2-methoxyphenyl)-5-(trifluoromethyl)cyclohex-1-enyl)methyl)-4-methyloxazolidin-2-one] | 23 | 
11 | 8 | COc1ccc(N(C)C(C)=O)cc1C1=C(CN2C(=O)O[C@H](c3cc(C(F)(F)F)cc(C(F)(F)F)c3)[C@@H]2C)CC(C)(C)CC1 [Compound 112, N-(3-(2-(((4S,5R)-5-(3,5-bis(trifluoromethyl)phenyl)-4-methyl-2-oxooxazolidin-3-yl)methyl)-4,4-dimethylcyclohex-1-enyl)-4-methoxyphenyl)-N-methylacetamide] | 43 | 
12 | 10 | COc1ccc(C(C)(C)C)cc1C1=C(CN2C(=O)O[C@H](c3cc(C(F)(F)F)cc(C(F)(F)F)c3)[C@@H]2C)CC(C)(C)CC1 [Compound 115, (4S,5R)-5-(3,5-bis(trifluoromethyl)phenyl)-3-((2-(5-tert-butyl-2-methoxyphenyl)-5,5-dimethylcyclohex-1-enyl)methyl)-4-methyloxazolidin-2-one] | 29 | 
13 | 50 | COc1cc(F)c(C(C)C(F)(F)F)cc1C1=C(CN2C(=O)O[C@H](c3cc(C(F)(F)F)cc(C(F)(F)F)c3)[C@@H]2C)CC(C)(C)CC1 (stereo partly drawn) [Compound 132, (4S,5R)-5-(3,5-bis(trifluoromethyl)phenyl)-3-((2-(4-fluoro-2-methoxy-5-(1,1,1-trifluoropropan-2-yl)phenyl)-5,5-dimethylcyclohex-1-enyl)methyl)-4-methyloxazolidin-2-one] | 33 | 
14 | 14 | COc1cc(F)c(C(C)C)cc1C1=C(CN2C(=O)O[C@H](c3cc(C(F)(F)F)cc(C(F)(F)F)c3)[C@@H]2C)CC2(CC1)CC2 [Compound 274, (4S,5R)-5-(3,5-bis(trifluoromethyl)phenyl)-3-((6-(4-fluoro-5-isopropyl-2-methoxyphenyl)spiro[2.5]oct-5-en-5-yl)methyl)-4-methyloxazolidin-2-one] | 21 | 
15 | 12 | COc1ccc(CC(C)(C)C(=O)O)cc1C1=C(CN2C(=O)O[C@H](c3cc(C(F)(F)F)cc(C(F)(F)F)c3)[C@@H]2C)CC(C)(C)CC1 [Compound 286, 3-(3-(2-(((4S,5R)-5-(3,5-bis(trifluoromethyl)phenyl)-4-methyl-2-oxooxazolidin-3-yl)methyl)-4,4-dimethylcyclohex-1-enyl)-4-methoxyphenyl)-2,2-dimethylpropanoic acid] | 42 | 
16 | 6 | COc1cc(F)c(C2(C)CC2)cc1C1=C(CN2C(=O)O[C@H](c3cc(C(F)(F)F)cc(C(F)(F)F)c3)[C@@H]2C)CC(C)(C)CC1 [Compound 302, (4S,5R)-5-(3,5-bis(trifluoromethyl)phenyl)-3-((2-(4-fluoro-2-methoxy-5-(1-methylcyclopropyl)phenyl)-5,5-dimethylcyclohex-1-enyl)methyl)-4-methyloxazolidin-2-one] | 38 | 
